Columns and labels:
[1] = Toxicity in po dosed mouse assessed as mortality after 7 days; settings: in vivo
[2] = test system: Rattus norvegicus; test: Hypotensive activity in po dosed spontaneously hypertensive Wistar-Okamoto rat assessed as dose required to cause 30 mmHg fall of blood pressure administered for 5 days; format: functional; settings: 120 h, read-out: MED

Row | Compound | LD50 at 168 h [1] [mg/kg] | minimal effective dose [2] [mg/kg]
1 | CC(C)(C)/N=C(\NC#N)Nc1ccc(Cl)nc1Cl | > 1000 | > 50
2 | CC1(/N=C(\NC#N)Nc2cccnc2)CCC1 | > 1000 | 50
3 | COc1ccc(N/C(=N/C(C)(C)C)NC#N)cn1 | 400 | 15
4 | CC(/N=C(\NC#N)Nc1ccncc1)c1ccccc1 (stereo unspecified) | 600 | 10
5 | CC(C)(C)/N=C(\NC#N)Nc1ccccn1 | 600 | > 20
6 | CCC(CC)(CC)/N=C(\NC#N)Nc1ccncc1 | > 1000 | 2.5
7 | CC(C)(C)/N=C(\NC#N)Nc1cncc(Br)c1 | 600 | 0.5
8 | CC(C)(C)/N=C(\NC#N)Nc1ccncc1 | > 1000 | 2.5
9 | CC(C)(C)CC(C)(C)/N=C(\NC#N)Nc1ccncc1 | > 1000 | 50
10 | CC(C)(C)CC(C)(C)/N=C(\NC#N)Nc1cccnc1 | > 1000 | 50
11 | CCC(C)(CC)/N=C(\NC#N)Nc1ccncc1 | 300 | 0.5
12 | CCC(C)(C)N/C(=N\C#N)Nc1ccc[n+]([O-])c1 | > 1000 | 20
13 | CC(=O)Nc1ccc(N/C(=N/C#N)NC(C)(C)C)cc1 | > 1000 | > 50
14 | N#CN/C(=N\CCc1ccccc1)Nc1ccncc1 | > 1000 | 20
15 | CC(/N=C(/NC#N)Nc1cccnc1)C(C)(C)C (stereo unspecified) | 1000 | 1
16 | CC(C)(C)C/N=C(/NC#N)Nc1cccnc1 | > 1000 | 2.5
17 | CC(C)CCCC(C)N/C(=N\C#N)Nc1ccncc1 (stereo unspecified) | > 1000 | 50
18 | CCC(C)(C)N/C(=N\C#N)NCc1ccncc1.O | > 1000 | 20
19 | Cc1cccc(C)c1/N=C(\NC#N)Nc1cccnc1 | > 1000 | 50

Row | Compound | LD50 at 168 h [1] [mg/kg] | minimal effective dose [2] [mg/kg]
20 | N#CN/C(=N\c1ccccc1)Nc1cccnc1 | > 1000 | 5
21 | CCC(C)(C)N/C(=N\C#N)Nc1ccc(OC)cc1 | > 1000 | 50
22 | CCC(CC)(CC)/N=C(\NC#N)Nc1cccnc1 | > 1000 | 1
23 | CCC(C)(C)N/C(=N\C#N)Nc1cc(C)nc2ccccc12 | > 1000 | 10
24 | CCC(C)(C)N/C(=N\c1ncccn1)Nc1cccnc1.Cl | 1000 | > 35
25 | CCC(C)(C)N/C(N)=N/C#N [GUANCYDINE] | 800 | 15
26 | CC(C)(N/C(=N\C#N)Nc1ccncc1)c1ccccc1 | > 1000 | > 50
27 | CCCCC/N=C(\NC#N)Nc1cccnc1 | > 1000 | 20
28 | CCCN(CCC)S(=O)(=O)/N=C(/Nc1cccnc1)NC(C)(C)CC | > 1000 | > 50
29 | N#CN/C(=N\C1CCCCC1)Nc1ccncc1 | 600 | 20
30 | CC(C)/N=C(\NC#N)Nc1cccnc1 | > 1000 | 2.5
31 | Cc1nn(C)c(C)c1N/C(=N/C#N)NC(C)(C)C | > 1000 | 5
32 | CC(C)(C)N/C(=N\C#N)Nc1cnc2ccccc2c1 | > 1000 | 20
33 | CCCC(C)(C)/N=C(\NC#N)Nc1cccnc1 | > 1000 | 1
34 | CC(C)(C)N/C(=N\C#N)Nc1c(Cl)cccc1Cl | > 1000 | > 50
35 | CC(C)C(/N=C(\NC#N)Nc1cccnc1)C(C)C | > 1000 | 5
36 | CCCCCCC/N=C(\NC#N)Nc1cccnc1 | > 1000 | > 50
37 | CC(C)CC/N=C(\NC#N)Nc1cccnc1 | > 1000 | 20
38 | CC(C)C/N=C(\NC#N)Nc1cccnc1 | > 1000 | 20

Reference: ChEMBL document CHEMBL3272224, “Synthesis and hypotensive activity of N-alkyl-N"-cyano-N'-pyridylguanidines” (J Med Chem, 1978)
